Data published in patent US20260262643A1, “HERBICIDAL BENZOXAZINES” (FMC CORPORATION, priority 2022, published 2026).

What was measured:
[1] = tested on: ryegrass, Italian; experiment: Test A postemergence; format: in vivo, Lolium multiflorum; details: 500 g ai/ha, postemergence, 10 days, visual injury, 0 to 100 scale (0 no effect, 100 complete control)
How it was run: (§1)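 Weeds and crops in loam–sand blend were sprayed preemergence onto soil or postemergence at 2–10 cm (one- to two-leaf stage). Test chemicals were in a non-phytotoxic solvent with surfactant. After 10 days in the greenhouse, injury was rated visually against untreated controls on a 0 (no effect) to 100 (complete control) scale.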

[2] = tested on: pigweed, palmer; experiment: Test A postemergence; format: in vivo, Amaranthus palmeri; details: 500 g ai/ha, postemergence, 10 days, visual injury, 0 to 100 scale (0 no effect, 100 complete control)
How it was run: as §1

[3] = tested on: sedge, umbrella; experiment: Test B flooded paddy test; format: in vivo, Cyperus difformis; details: 250 g ai/ha, Flood, 13 days, 0 to 100 scale (0 no effect, 100 complete control)
How it was run: (§2)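 Species grown to 2-leaf stage; pots flooded 3 cm above soil and compound applied directly to paddy water, depth maintained throughout. After 13 days in greenhouse, plants visually rated against controls on 0–100 scale (0 no effect, 100 complete control); dash means no result.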

[4] = tested on: horseweed; experiment: Test A postemergence; format: in vivo, Erigeron canadensis; details: postemergence, 10 days, visual injury, 0 to 100 scale (0 no effect, 100 complete control)
How it was run: as §1

[5] = tested on: barnyardgrass; experiment: Test B flooded paddy test; format: in vivo, Echinochloa crus-galli; details: 250 g ai/ha, Flood, 13 days, 0 to 100 scale (0 no effect, 100 complete control)
How it was run: as §2

[6] = tested on: ryegrass, Italian; experiment: Test A preemergence; format: in vivo, Lolium multiflorum
How it was run: as §1

[7] = tested on: kochia; experiment: Test A preemergence; format: in vivo, Bassia scoparia
How it was run: as §1

[8] = tested on: foxtail, giant; experiment: Test A preemergence; format: in vivo, Setaria faberi
How it was run: as §1

[9] = tested on: goosegrass; experiment: Test A postemergence; format: in vivo, Eleusine indica; details: postemergence, 10 days, visual injury, 0 to 100 scale (0 no effect, 100 complete control)
How it was run: as §1

[10] = tested on: ragweed; experiment: Test A postemergence; format: in vivo, Ambrosia artemisiifolia; details: 500 g ai/ha, postemergence, 10 days, visual injury, 0 to 100 scale (0 no effect, 100 complete control)
How it was run: as §1

[11] = tested on: blackgrass; experiment: Test A postemergence; format: in vivo, Alopecurus myosuroides
How it was run: as §1

[12] = tested on: rice; experiment: Test B flooded paddy test; format: in vivo, Oryza sativa; details: 250 g ai/ha, Flood, 13 days, 0 to 100 scale (0 no effect, 100 complete control)
How it was run: as §2

[13] = tested on: kochia; experiment: Test A postemergence; format: in vivo, Bassia scoparia; details: postemergence, 10 days, visual injury, 0 to 100 scale (0 no effect, 100 complete control)
How it was run: as §1

[14] = tested on: wheat; experiment: Test A preemergence; format: in vivo, Triticum aestivum
How it was run: as §1

[15] = tested on: oat, wild; experiment: Test A postemergence; format: in vivo, Avena fatua; details: 500 g ai/ha, postemergence, 10 days, visual injury, 0 to 100 scale (0 no effect, 100 complete control)
How it was run: as §1

[16] = tested on: wheat; experiment: Test A postemergence; format: in vivo, Triticum aestivum; details: 500 g ai/ha, postemergence, 10 days, visual injury, 0 to 100 scale (0 no effect, 100 complete control)
How it was run: as §1

[17] = tested on: ducksalad; experiment: Test B flooded paddy test; format: in vivo, Heteranthera limosa; details: 250 g ai/ha, Flood, 13 days, 0 to 100 scale (0 no effect, 100 complete control)
How it was run: as §2

[18] = tested on: oat, wild; experiment: Test A preemergence; format: in vivo, Avena fatua
How it was run: as §1

[19] = tested on: soybean; experiment: Test A preemergence; format: in vivo, Glycine max
How it was run: as §1

[20] = tested on: ragweed; experiment: Test A preemergence; format: in vivo, Ambrosia artemisiifolia
How it was run: as §1

[21] = tested on: galium; experiment: Test A postemergence; format: in vivo, Galium aparine; details: postemergence, 10 days, visual injury, 0 to 100 scale (0 no effect, 100 complete control)
How it was run: as §1

[22] = tested on: soybean; experiment: Test A postemergence; format: in vivo, Glycine max; details: 500 g ai/ha, postemergence, 10 days, visual injury, 0 to 100 scale (0 no effect, 100 complete control)
How it was run: as §1

[23] = tested on: corn; experiment: Test A preemergence; format: in vivo, Zea mays
How it was run: as §1

[24] = tested on: pigweed, palmer; experiment: Test A preemergence; format: in vivo, Amaranthus palmeri
How it was run: as §1

[25] = tested on: goosegrass; experiment: Test A preemergence; format: in vivo, Eleusine indica
How it was run: as §1

[26] = tested on: foxtail, giant; experiment: Test A postemergence; format: in vivo, Setaria faberi; details: postemergence, 10 days, visual injury, 0 to 100 scale (0 no effect, 100 complete control)
How it was run: as §1

[27] = tested on: corn; experiment: Test A postemergence; format: in vivo, Zea mays; details: postemergence, 10 days, visual injury, 0 to 100 scale (0 no effect, 100 complete control)
How it was run: as §1

[28] = 125 g ai/ha, visual injury after 10 days, 0 to 100 scale, 0 is no effect, 100 is complete control
[29] = 500 g ai/ha, 0 to 100 scale (0 no effect, 100 complete control), 10 days

CC(C)c1ncn(-c2cccc(C(=O)N3C[C@H](C)Oc4c(Cl)cccc43)c2)n1 [Compound 78]
100: Plant response rating, Ryegrass, Italian [1] | Plant response rating, Ryegrass, Italian [6, 29] | Plant response rating, Kochia [7, 29] | Plant response rating, Foxtail, Giant [8, 28] | Plant response rating, Foxtail, Giant [8, 29] | Plant response rating, Kochia ([13]; 500 g ai/ha) | Plant response rating, Soybean [19, 29] | Plant response rating, Galium ([21]; 125 g ai/ha) | Plant response rating, Galium ([21]; 500 g ai/ha) | Plant response rating, Soybean [22] | Plant response rating, Pigweed, Palmer [24, 28] | Plant response rating, Pigweed, Palmer [24, 29] | Plant response rating, Goosegrass [25, 29]
80: Plant response rating, Goosegrass ([9]; 500 g ai/ha) | Plant response rating, Ragweed [10] | Plant response rating, Wheat [14, 29] | Plant response rating, Oat, Wild [18, 28]
40: Plant response rating, Goosegrass ([9]; 125 g ai/ha)
20: Plant response rating, Wheat [14, 28]
70: Plant response rating, Kochia ([13]; 125 g ai/ha)
60: Plant response rating, Corn ([27]; 500 g ai/ha)
10: Plant response rating, Corn ([27]; 125 g ai/ha)
50: Plant response rating, Blackgrass ([11]; 125 g ai/ha, postemergence, 10 days, visual injury, 0 to 100 scale (0 no effect, 100 complete control)) | Plant response rating, Wheat [16] | Plant response rating, Foxtail, Giant ([26]; 125 g ai/ha)
90: Plant response rating, Pigweed, Palmer [2] | Plant response rating, Ryegrass, Italian [6, 28] | Plant response rating, Kochia [7, 28] | Plant response rating, Blackgrass ([11]; 500 g ai/ha, Postemergence, 0 to 100 scale) | Plant response rating, Oat, Wild [15] | Plant response rating, Oat, Wild [18, 29] | Plant response rating, Ragweed [20, 29] | Plant response rating, Goosegrass [25, 28] | Plant response rating, Foxtail, Giant ([26]; 500 g ai/ha)
0: Plant response rating, Sedge, Umbrella [3] | Plant response rating, Horseweed ([4]; 125 g ai/ha) | Plant response rating, Horseweed ([4]; 500 g ai/ha) | Plant response rating, Barnyardgrass [5] | Plant response rating, Rice [12] | Plant response rating, Soybean [19, 28] | Plant response rating, Ragweed [20, 28]
75: Plant response rating, Ducksalad [17]
30: Plant response rating, Corn [23, 28] | Plant response rating, Corn [23, 29]
